From patent US6566368B2, “Apomorphine-containing dosage form for ameliorating male erectile dysfunction” (Pentech Pharmaceuticals, Inc., priority 1994, dated 2003)

Columns and labels:
[1] = system: patients with psychogenic impotence; details: patients on liquid sublingual apomorphine 10 mg and 20 mg
[2] = system: patients with psychogenic impotence; details: nicotine e.g. by smoking

| SMILES | counteraction of apomorphine adverse effects (nausea, vomiting, diaphoresis, etc.) [1] | counteraction of adverse effects of the 5 mg apomorphine dose (nausea, diaphoresis, etc.) [2] |
| --- | --- | --- |
| O=c1[nH]c2ccccc2n1CCCN1CCC(n2c(=O)[nH]c3cc(Cl)ccc32)CC1 [Domperidone] | can be counteracted | can be counteracted |
| CN1CCCC1c1cccnc1 (stereo not drawn) [nicotine] |  | can be counteracted |
